# From ChEMBL document CHEMBL1201862, “PubChem BioAssay data set” (2004)
#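 A five-concentration, 48-hour dose response in 96-well plates underlies each endpoint, interpolated linearly between surrounding concentrations. GI50: concentration for 50% inhibition of growth.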 Active and inactive are the calls of the source. Cut-off read from the data, not from the text of the source: active = GI50 up to about 1.1 µM and inactive = higher.
# What was measured:
# Assay in all cases: growth of human tumour cells (NCI), 48 h
# 786-0 = tested on: 786-0
# EKVX = tested on: EKVX
# K562 = tested on: K562
# ACHN = tested on: ACHN
# DLD-1 = tested on: DLD-1
# NCI-H460 = tested on: NCI-H460
# SNB-78 = tested on: SNB-78
# CCRF-CEM = tested on: CCRF-CEM
# IGROV-1 = tested on: IGROV-1
# LXFL 529 = tested on: LXFL 529
# RPMI-8226 = tested on: RPMI-8226
# MOLT-4 = tested on: MOLT-4
# DMS-114 = tested on: DMS-114
# HCT-116 = tested on: HCT-116
# SK-MEL-5 = tested on: SK-MEL-5
# SF-268 = tested on: SF-268
# SR = tested on: SR
# SK-MEL-2 = tested on: SK-MEL-2
# OVCAR-5 = tested on: OVCAR-5
# UACC-257 = tested on: UACC-257
# SK-MEL-28 = tested on: SK-MEL-28
# HOP-92 = tested on: HOP-92
# COLO 205 = tested on: COLO 205
# HCC 2998 = tested on: HCC 2998
# SNB-19 = tested on: SNB-19
# SF-295 = tested on: SF-295
# DMS-273 = tested on: DMS-273
# U-251 = tested on: U-251
# SF-539 = tested on: SF-539
# A549 = tested on: A549
# OVCAR-8 = tested on: OVCAR-8
# OVCAR-3 = tested on: OVCAR-3
# LOX IMVI = tested on: LOX IMVI
# RXF 393 = tested on: RXF 393
# UO-31 = tested on: UO-31
# SNB-75 = tested on: SNB-75
# XF498 = tested on: XF498
# M19-MEL = tested on: M19-MEL
# M14 = tested on: M14
# Malme-3M = tested on: Malme-3M
# UACC-62 = tested on: UACC-62
# NCI-H522 = tested on: NCI-H522
# HOP-62 = tested on: HOP-62
# TK-10 = tested on: TK-10
# RXF 631 = tested on: RXF 631
# CAKI-1 = tested on: CAKI-1
# HT-29 = tested on: HT-29
# KM12 = tested on: KM12
# SK-OV-3 = tested on: SK-OV-3
# NCI-H23 = tested on: NCI-H23
# A498 = tested on: A498
# SN12C = tested on: SN12C
# HOP-18 = tested on: HOP-18
# NCI-H226 = tested on: NCI-H226
# OVCAR-4 = tested on: OVCAR-4
# SW-620 = tested on: SW-620
# HL-60 = tested on: HL-60
# HCT-15 = tested on: HCT-15
structure (smiles),measurement,setting,value
Nc1ncnc2c1ncn2COC/C=C/I,GI50,786-0,> 100 µM (inactive)
same,GI50,EKVX,77.6 µM (inactive)
same,GI50,K562,> 100 µM (inactive)
same,GI50,ACHN,> 100 µM (inactive)
same,GI50,DLD-1,> 100 µM (inactive)
same,GI50,NCI-H460,> 100 µM (inactive)
same,GI50,SNB-78,> 100 µM (inactive)
same,GI50,CCRF-CEM,85.3 µM (inactive)
same,GI50,IGROV-1,> 100 µM (inactive)
same,GI50,LXFL 529,> 100 µM (inactive)
same,GI50,RPMI-8226,> 100 µM (inactive)
same,GI50,MOLT-4,> 100 µM (inactive)
same,GI50,DMS-114,> 100 µM (inactive)
same,GI50,HCT-116,> 100 µM (inactive)
same,GI50,SK-MEL-5,> 100 µM (inactive)
same,GI50,SF-268,> 100 µM (inactive)
same,GI50,SR,> 100 µM (inactive)
same,GI50,SK-MEL-2,> 100 µM (inactive)
same,GI50,OVCAR-5,> 100 µM (inactive)
same,GI50,UACC-257,> 100 µM (inactive)
same,GI50,SK-MEL-28,> 100 µM (inactive)
same,GI50,HOP-92,> 100 µM (inactive)
same,GI50,COLO 205,> 100 µM (inactive)
same,GI50,HCC 2998,> 100 µM (inactive)
same,GI50,SNB-19,> 100 µM (inactive)
same,GI50,SF-295,> 100 µM (inactive)
same,GI50,DMS-273,> 100 µM (inactive)
same,GI50,U-251,> 100 µM (inactive)
same,GI50,SF-539,> 100 µM (inactive)
same,GI50,A549,> 100 µM (inactive)
same,GI50,OVCAR-8,> 100 µM (inactive)
same,GI50,OVCAR-3,> 100 µM (inactive)
same,GI50,LOX IMVI,> 100 µM (inactive)
same,GI50,RXF 393,> 100 µM (inactive)
same,GI50,UO-31,> 100 µM (inactive)
same,GI50,SNB-75,36.7 µM (inactive)
same,GI50,XF498,> 100 µM (inactive)
same,GI50,M19-MEL,> 100 µM (inactive)
same,GI50,M14,> 100 µM (inactive)
same,GI50,Malme-3M,> 100 µM (inactive)
same,GI50,UACC-62,> 100 µM (inactive)
same,GI50,NCI-H522,> 100 µM (inactive)
same,GI50,HOP-62,> 100 µM (inactive)
same,GI50,TK-10,> 100 µM (inactive)
same,GI50,RXF 631,> 100 µM (inactive)
same,GI50,CAKI-1,> 100 µM (inactive)
same,GI50,HT-29,> 100 µM (inactive)
same,GI50,KM12,> 100 µM (inactive)
same,GI50,SK-OV-3,> 100 µM (inactive)
same,GI50,NCI-H23,> 100 µM (inactive)
same,GI50,A498,> 100 µM (inactive)
same,GI50,SN12C,> 100 µM (inactive)
same,GI50,HOP-18,14 µM (inactive)
same,GI50,NCI-H226,> 100 µM (inactive)
same,GI50,OVCAR-4,> 100 µM (inactive)
same,GI50,SW-620,> 100 µM (inactive)
Cn1c2c(c3ccccc31)C1CCCCC1C1C(=O)NC(=O)C21 (configuration not stated),GI50,786-0,65 µM (inactive)
same,GI50,EKVX,32.8 µM (inactive)
same,GI50,K562,40.6 µM (inactive)
same,GI50,ACHN,35.2 µM (inactive)
same,GI50,DLD-1,51.3 µM (inactive)
same,GI50,NCI-H460,34.8 µM (inactive)
same,GI50,SNB-78,> 100 µM (inactive)
same,GI50,CCRF-CEM,36.6 µM (inactive)
same,GI50,IGROV-1,> 100 µM (inactive)
same,GI50,LXFL 529,> 100 µM (inactive)
same,GI50,RPMI-8226,41.8 µM (inactive)
same,GI50,MOLT-4,21.8 µM (inactive)
same,GI50,DMS-114,50.4 µM (inactive)
same,GI50,HL-60,26.6 µM (inactive)
same,GI50,SK-MEL-5,45 µM (inactive)
same,GI50,SF-268,70.1 µM (inactive)
same,GI50,SR,32.1 µM (inactive)
same,GI50,OVCAR-5,> 100 µM (inactive)
same,GI50,SK-MEL-28,88.9 µM (inactive)
same,GI50,COLO 205,39.9 µM (inactive)
same,GI50,HCC 2998,52.2 µM (inactive)
same,GI50,SNB-19,> 100 µM (inactive)
same,GI50,SF-295,57.7 µM (inactive)
same,GI50,DMS-273,> 10 µM (inactive)
same,GI50,U-251,> 100 µM (inactive)
same,GI50,SF-539,80.7 µM (inactive)
same,GI50,A549,43.3 µM (inactive)
same,GI50,OVCAR-8,66.2 µM (inactive)
same,GI50,OVCAR-3,17 µM (inactive)
same,GI50,LOX IMVI,33.1 µM (inactive)
same,GI50,RXF 393,32.4 µM (inactive)
same,GI50,UO-31,28.6 µM (inactive)
same,GI50,SNB-75,33.1 µM (inactive)
same,GI50,XF498,44.7 µM (inactive)
same,GI50,M19-MEL,58.3 µM (inactive)
same,GI50,M14,57.9 µM (inactive)
same,GI50,Malme-3M,32.1 µM (inactive)
same,GI50,UACC-62,> 100 µM (inactive)
same,GI50,HCT-15,68.9 µM
same,GI50,TK-10,> 100 µM (inactive)
same,GI50,RXF 631,41.4 µM (inactive)
same,GI50,HT-29,33.1 µM (inactive)
same,GI50,KM12,54.3 µM (inactive)
same,GI50,SK-OV-3,> 100 µM (inactive)
same,GI50,NCI-H23,> 100 µM (inactive)
same,GI50,A498,22.5 µM (inactive)
same,GI50,SN12C,33.2 µM (inactive)
same,GI50,HOP-18,33.4 µM (inactive)
same,GI50,NCI-H226,21.6 µM (inactive)
same,GI50,OVCAR-4,56.5 µM (inactive)
same,GI50,SW-620,52 µM (inactive)
